# Assays:
# Homo sapiens = organism: Homo sapiens; experiment: In vitro effective concentration in normal human dermal fibroblasts; Inactive; type: functional
# Mus musculus [1] = experiment: In vivo activity in a diabetic mouse at a dose of 200 umol/kg/day on day 3 after 2 hr; type: functional
# [2] = biological target: Pyruvate dehydrogenase kinase (Homo sapiens, UniProt Q15119+Q15120+Q16654+Q15118); experiment: In vitro inhibitory activity against pyruvate dehydrogenase kinase was determined; type: protein assay
# Mus musculus [3] = experiment: In vivo activity in a diabetic mouse at a dose of 200 umol/kg/day on day1 after 2 hr; type: functional
# Mus musculus [4] = experiment: In vivo activity in a diabetic mouse at a dose of 200 umol/kg/day on day 3 after 6 hr; type: functional
# Mus musculus [5] = experiment: In vivo activity in a diabetic mouse at a dose of 200 umol/kg/day on day 3 after 4 hr; type: functional
# Mus musculus [6] = experiment: In vivo activity in a diabetic mouse at a dose of 200 umol/kg/day on day1 after 6 hr; type: functional
# Mus musculus [7] = experiment: In vivo activity in a diabetic mouse at a dose of 200 umol/kg/day on day1 after 4 hr; type: functional
# Mus musculus [8] = experiment: In vivo activity in a diabetic mouse at a dose of 1000 umol/kg/day on day1 after 2 hours; type: functional
# Mus musculus [9] = experiment: In vivo activity in a diabetic mouse at a dose of 1000 umol/kg/day on day1 after 6 hr; type: functional
# Mus musculus [10] = experiment: In vivo activity in a diabetic mouse at a dose of 1000 umol/kg/day on day 3 after 4 hr; type: functional
# Mus musculus [11] = experiment: In vivo activity in a diabetic mouse at a dose of 1000 umol/kg/day on day 3 after 2 hr; type: functional
# [12] = In vitro effective concentration in normal human dermal fibroblasts; type: functional
# Mus musculus [13] = experiment: In vivo activity in a diabetic mouse at a dose of 1000 umol/kg/day on day 3 after 6 hr; type: functional
# Mus musculus [14] = experiment: In vivo activity in a diabetic mouse at a dose of 1000 umol/kg/day on day1 after 4 hr; type: functional
# Mus musculus [15] = experiment: In vivo activity in a diabetic mouse at a dose of 100 umol/kg/day on day1 after 2 hr; type: functional
# Mus musculus [16] = experiment: In vivo activity in a diabetic mouse at a dose of 100 umol/kg/day on day1 after 4 hr; type: functional
# Mus musculus [17] = experiment: In vivo activity in a diabetic mouse at a dose of 100 umol/kg/day on day 3 after 4 hr; type: functional
# Mus musculus [18] = experiment: In vivo activity in a diabetic mouse at a dose of 100 umol/kg/day on day 3 after 6 hr; type: functional
# Mus musculus [19] = experiment: In vivo activity in a diabetic mouse at a dose of 100 umol/kg/day on day 3 after 2 hr; type: functional
# Mus musculus [20] = experiment: In vivo activity in a diabetic mouse at a dose of 100 umol/kg/day on day1 after 6 hr; type: functional
# Mus musculus [21] = experiment: In vivo activity in a diabetic mouse at a dose of 300 umol/kg/day on day1 after 2 hr; type: functional
# Rattus norvegicus [22] = experiment: Effect on blood glucose level after 4 hours of oral administration of compound at a dose of 300 umol/kg; type: functional
# Rattus norvegicus [23] = experiment: Effect on blood glucose level after 2 hours of oral administration of compound at a dose of 300 umol/kg; type: functional
# Mus musculus [24] = experiment: In vivo activity in a diabetic mouse at a dose of 30 umol/kg/day on day1 after 4 hr; type: functional
# Mus musculus [25] = experiment: In vivo activity in a diabetic mouse at a dose of 300 umol/kg/day on day 3 after 2 hr; type: functional
# Mus musculus [26] = experiment: In vivo activity in a diabetic mouse at a dose of 30 umol/kg/day on day1 after 6 hr; type: functional
# Mus musculus [27] = experiment: In vivo activity in a diabetic mouse at a dose of 30 umol/kg/day on day 3 after 2 hr; type: functional
# Mus musculus [28] = experiment: In vivo activity in a diabetic mouse at a dose of 30 umol/kg/day on day1 after 2 hr; type: functional
# Mus musculus [29] = experiment: In vivo activity in a diabetic mouse at a dose of 300 umol/kg/day on day 3 after 6 hr; type: functional
# Rattus norvegicus [30] = experiment: Effect on blood lactate level after 4 hours of oral administration of compound at a dose of 300 umol/kg; type: functional
# Rattus norvegicus [31] = experiment: Effect on blood lactate level after 2 hours of oral administration of compound at a dose of 300 umol/kg; type: functional
# Rattus norvegicus [32] = experiment: Effect on blood lactate level after 0 hour of oral administration of compound at a dose of 300 umol/kg; type: functional
# Mus musculus [33] = experiment: In vivo activity in a diabetic mouse at a dose of 300 umol/kg/day on day1 after 6 hr; type: functional
# Mus musculus [34] = experiment: In vivo activity in a diabetic mouse at a dose of 30 umol/kg/day on day 3 after 4 hr; type: functional
# Mus musculus [35] = experiment: In vivo activity in a diabetic mouse at a dose of 30 umol/kg/day on day 3 after 6 hr; type: functional
# Mus musculus [36] = experiment: In vivo activity in a diabetic mouse at a dose of 300 umol/kg/day on day1 after 4 hr; type: functional
# Rattus norvegicus [37] = experiment: Effect on blood glucose level after 0 hour of oral administration of compound at a dose of 300 umol/kg; type: functional
# Mus musculus [38] = experiment: In vivo activity in a diabetic mouse at a dose of 300 umol/kg/day on day 3 after 4 hr; type: functional
smiles,measurement,setting,value
CC(C)C1=CC2=CC[C@@H]3[C@](C)(CCC[C@@]3(C)C(N)=O)[C@H]2CC1,EC50,Homo sapiens,Not Active
same,Efficacy,Mus musculus [1],13%
same,IC50,[2],6.7 µM
same,Efficacy,Mus musculus [3],4%
same,Efficacy,Mus musculus [4],16%
same,Efficacy,Mus musculus [5],9%
same,Efficacy,Mus musculus [6],16%
same,Efficacy,Mus musculus [7],-2%
CC(C)C1=CC2=CC[C@@H]3[C@](C)(CCC[C@@]3(C)C(=O)O)[C@H]2CC1 [ABIETIC ACID],EC50,Homo sapiens,Not Active
same,Efficacy,Mus musculus [1],24%
same,IC50,[2],20 µM
same,Efficacy,Mus musculus [3],45%
same,Efficacy,Mus musculus [4],29%
same,Efficacy,Mus musculus [5],22%
same,Efficacy,Mus musculus [6],42%
same,Efficacy,Mus musculus [7],25%
C[C@]12CC[C@H]3[C@@H](CCC4=C/C(=N/CC(=O)O)CC[C@@H]43)[C@@H]1CC[C@@H]2O,IC50,[2],56 µM
O=C(O)C(Cl)Cl [DICHLOROACETIC ACID],Efficacy,Mus musculus [8],59%
same,Efficacy,Mus musculus [9],29%
same,Efficacy,Mus musculus [10],50%
same,Efficacy,Mus musculus [11],52%
same,EC50,[12],100 µM
same,Efficacy,Mus musculus [13],56%
same,Efficacy,Mus musculus [14],39%
C[C@]12CC[C@H]3[C@@H](CCC4=C/C(=N/O)CC[C@@H]43)[C@@H]1CC[C@@H]2O,IC50,[2],5.4 µM
C#C[C@]1(O)CC[C@H]2[C@@H]3CCC4=C/C(=N/O)CC[C@@H]4[C@H]3CC[C@@]21C,IC50,[2],5.8 µM
C[C@]12CC[C@H]3[C@@H](CCC4=CC(=O)CC[C@@H]43)[C@@H]1CC[C@@H]2O [NANDROLONE],IC50,[2],120 µM
CC(C)C1=CC2=CC[C@H]3[C@](C)(CO)CCC[C@]3(C)[C@H]2CC1,EC50,Homo sapiens,Not Active
same,Efficacy,Mus musculus [15],7%
same,Efficacy,Mus musculus [16],-8%
same,IC50,[2],~ 10 uM
same,Efficacy,Mus musculus [17],10%
same,Efficacy,Mus musculus [18],24%
same,Efficacy,Mus musculus [19],7%
same,Efficacy,Mus musculus [20],19%
C=C=C[C@]1(O)CC[C@H]2[C@@H]3CCC4=C/C(=N/O)CC[C@@H]4[C@H]3CC[C@@]21C,EC50,Homo sapiens,Not Active
same,Efficacy,Mus musculus [15],3%
same,Efficacy,Mus musculus [21],-2%
same,Blood glucose,Rattus norvegicus [22],49.3 mg/dL
same,Blood glucose,Rattus norvegicus [23],49.1 mg/dL
same,Efficacy,Mus musculus [16],4%
same,Efficacy,Mus musculus [24],-3%
same,Efficacy,Mus musculus [25],92%
same,Efficacy,Mus musculus [26],2%
same,IC50,[2],0.84 µM
same,Efficacy,Mus musculus [27],38%
same,EC50,[12],1.7 µM
same,Efficacy,Mus musculus [28],-6%
same,Efficacy,Mus musculus [29],75%
same,Blood lactate,Rattus norvegicus [30],0.79 mM
same,Blood lactate,Rattus norvegicus [31],0.8 mM
same,Blood lactate,Rattus norvegicus [32],1.01 mM
same,Efficacy,Mus musculus [33],51%
same,Efficacy,Mus musculus [34],43%
same,Efficacy,Mus musculus [17],70%
same,Efficacy,Mus musculus [35],-6%
same,Efficacy,Mus musculus [18],47%
same,Efficacy,Mus musculus [36],19%
same,Efficacy,Mus musculus [19],73%
same,Efficacy,Mus musculus [20],26%
same,Blood glucose,Rattus norvegicus [37],49.5 mg/dL
same,Efficacy,Mus musculus [38],83%
C[C@]12CC/C(=N\O)C[C@@H]1CC[C@@H]1[C@@H]2CC[C@]2(C)[C@@H](O)CC[C@@H]12,IC50,[2],51 µM
CC(C)c1ccc2c(c1)CC[C@H]1[C@](C)(CN)CCC[C@]21C,EC50,Homo sapiens,Not Active
same,Efficacy,Mus musculus [15],30%
same,Efficacy,Mus musculus [21],68%
same,Efficacy,Mus musculus [16],28%
same,Efficacy,Mus musculus [24],-1%
same,Efficacy,Mus musculus [25],85%
same,Efficacy,Mus musculus [26],11%
same,IC50,[2],9.5 µM
same,Efficacy,Mus musculus [27],-4%
same,Efficacy,Mus musculus [28],18%
same,Efficacy,Mus musculus [29],90%
same,Efficacy,Mus musculus [33],65%
same,Efficacy,Mus musculus [34],2%
same,Efficacy,Mus musculus [17],36%
same,Efficacy,Mus musculus [35],19%
same,Efficacy,Mus musculus [18],47%
same,Efficacy,Mus musculus [36],69%
same,Efficacy,Mus musculus [19],26%
same,Efficacy,Mus musculus [20],22%
same,Efficacy,Mus musculus [38],86%
C[C@]12CC/C(=N\O)C[C@H]1CC[C@@H]1[C@@H]2CC[C@]2(C)[C@@H](O)CC[C@@H]12,IC50,[2],36 µM
